Reference: US10988477B2 (Merck Patent GmbH, priority 2018, dated 2021)

These molecules were tested against GCN2 kinase (Homo sapiens, UniProt Q9P2K8) (assay: GCN2 enzyme inhibition assay (Transcreener ADP2 fluorescence polarization)). Settings: Enzyme activity for compounds of Formula IV; Ki(app), 280 μM ATP, 25° C.
Sequence of GCN2 kinase (Q9P2K8 whole entry): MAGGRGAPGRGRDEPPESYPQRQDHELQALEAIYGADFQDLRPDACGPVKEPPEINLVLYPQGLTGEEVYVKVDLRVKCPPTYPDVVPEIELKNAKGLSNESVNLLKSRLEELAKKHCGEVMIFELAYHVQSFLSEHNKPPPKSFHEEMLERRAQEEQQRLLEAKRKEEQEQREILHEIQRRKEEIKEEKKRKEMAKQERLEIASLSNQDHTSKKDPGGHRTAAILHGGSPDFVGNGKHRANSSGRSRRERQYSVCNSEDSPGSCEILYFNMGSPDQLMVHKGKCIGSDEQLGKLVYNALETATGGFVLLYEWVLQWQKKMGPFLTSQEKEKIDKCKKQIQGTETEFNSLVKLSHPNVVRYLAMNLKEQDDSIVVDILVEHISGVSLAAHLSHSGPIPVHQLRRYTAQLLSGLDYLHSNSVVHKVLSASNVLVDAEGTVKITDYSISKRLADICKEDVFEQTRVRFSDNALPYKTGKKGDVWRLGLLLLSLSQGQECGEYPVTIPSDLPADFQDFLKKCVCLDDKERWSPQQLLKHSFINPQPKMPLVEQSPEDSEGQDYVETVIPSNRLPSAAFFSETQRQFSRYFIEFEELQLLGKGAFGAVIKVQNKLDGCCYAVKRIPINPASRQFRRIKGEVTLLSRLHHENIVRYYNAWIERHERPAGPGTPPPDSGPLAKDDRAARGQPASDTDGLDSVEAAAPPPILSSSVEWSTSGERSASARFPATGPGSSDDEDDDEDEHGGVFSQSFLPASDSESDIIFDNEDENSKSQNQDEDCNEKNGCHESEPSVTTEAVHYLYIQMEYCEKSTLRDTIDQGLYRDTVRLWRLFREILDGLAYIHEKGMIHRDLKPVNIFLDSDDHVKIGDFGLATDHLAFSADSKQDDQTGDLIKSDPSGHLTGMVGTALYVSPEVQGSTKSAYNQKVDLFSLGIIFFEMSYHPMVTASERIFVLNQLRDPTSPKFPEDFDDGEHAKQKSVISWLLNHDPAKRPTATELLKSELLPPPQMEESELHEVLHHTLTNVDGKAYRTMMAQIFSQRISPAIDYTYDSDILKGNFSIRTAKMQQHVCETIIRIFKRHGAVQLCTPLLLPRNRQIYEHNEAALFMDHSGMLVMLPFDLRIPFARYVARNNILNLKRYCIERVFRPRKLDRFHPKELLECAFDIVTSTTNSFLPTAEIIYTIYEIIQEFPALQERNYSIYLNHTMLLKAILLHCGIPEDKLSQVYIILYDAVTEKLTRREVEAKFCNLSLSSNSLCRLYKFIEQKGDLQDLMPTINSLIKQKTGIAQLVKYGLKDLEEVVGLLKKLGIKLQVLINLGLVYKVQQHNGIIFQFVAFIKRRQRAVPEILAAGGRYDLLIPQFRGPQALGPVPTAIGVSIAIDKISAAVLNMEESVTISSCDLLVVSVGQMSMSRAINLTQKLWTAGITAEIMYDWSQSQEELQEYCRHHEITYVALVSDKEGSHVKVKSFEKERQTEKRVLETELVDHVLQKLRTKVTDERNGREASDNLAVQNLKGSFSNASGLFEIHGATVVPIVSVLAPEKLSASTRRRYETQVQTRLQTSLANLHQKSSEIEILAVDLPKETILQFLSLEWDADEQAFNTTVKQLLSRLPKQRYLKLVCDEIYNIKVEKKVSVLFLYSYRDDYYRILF
Format: biochemical
Method in brief: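 Run at 25 °C in 25 mM Tris-HCl pH 7.5, 50 mM NaCl, 10 mM MgCl2, 1 mM DTT with 4 nM GCN2, 280 μM ATP and 200 μM (RS)7 peptide; compound (0–8 μM final) preincubated 10 min, reaction 1 h. ADP read by antibody/tracer FP; IC50 and Ki(app) from tight-binding fit.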
With `C[C@H]1CN(c2ccnc(-c3cnc4cnc(C(F)(F)F)cn34)n2)C[C@@H](c2c[nH]cn2)O1` (racemic) [IV-380, Cis-2-(1H-Imidazol-4-yl)-6-methyl-4-(2-(6-(trifluoromethyl)imidazo[1,2-a]pyrazin-3-yl)pyrimidin-4-yl)morpholine] the Ki was < 10 nM.
For `O=C1NCCC12CCCN(c1ccnc(-c3cnc4cnc(C(F)(F)F)cn34)n1)C2` (stereo not shown) [IV-542, 7-(2-(6-(Trifluoromethyl)imidazo[1,2-a]pyrazin-3-yl)pyrimidin-4-yl)-2,7-diazaspiro[4.5]decan-1-one], the Ki was 100 to 1000 nM.
`FC(F)(F)c1cn2c(-c3nccc(N4CCOC(c5cccnc5)C4)n3)cnc2cn1` (stereo not shown) [IV-711] was tested, and the Ki was 100 to 1000 nM.
For `FC(F)(F)c1cn2c(-c3nccc(N4CCC(C5COC5)C4)n3)cnc2cn1` (stereo not shown) [IV-508, 3-(4-(3-(Oxetan-3-yl)pyrrolidin-1-yl)pyrimidin-2-yl)-6-(trifluoromethyl)imidazo[1,2-a]pyrazine], the Ki was 100 to 1000 nM.
With `CC(=O)N1CCN(c2cccc(-c3cnc4cnc(C(F)(F)F)cn34)n2)CC1` [IV-259, 1-(4-(6-(6-(Trifluoromethyl)imidazo[1,2-a]pyrazin-3-yl)pyridin-2-yl)piperazin-1-yl)ethan-1-one] the Ki was 100 to 1000 nM.
`CC(C)(O)C1CCN(c2cccc(-c3cnc4cnc(C(N)=O)cn34)n2)CC1` [IV-226, 3-(6-(4-(2-Hydroxypropan-2-yl)piperidin-1-yl)pyridin-2-yl)imidazo[1,2-a]pyrazine-6-carboxamide] showed a Ki of 10 to 100 nM.
For `FC(F)(F)c1cn2c(-c3nccc(N4CCC(c5cn[nH]c5)C4)n3)cnc2cn1` (single isomer, unassigned) [IV-541, 3-(4-(3-(1H-Pyrazol-4-yl)pyrrolidin-1-yl)pyrimidin-2-yl)-6-(trifluoromethyl)imidazo[1,2-a]pyrazine], the Ki was 10 to 100 nM.
`CC(=O)N(C)C1CCN(c2ccnc(-c3cnc4cnc(C(N)=O)cn34)n2)C1` (stereo not shown) [IV-267, 3-(4-(3-(N-Methylacetamido)pyrrolidin-1-yl)pyrimidin-2-yl)imidazo[1,2-a]pyrazine-6-carboxamide] was tested, and the Ki was 100 to 1000 nM.
`CC1CC(c2cn[nH]c2)C(C)N(c2ccnc(-c3cnc4cnc(C(F)(F)F)cn34)n2)C1` (stereo not shown) [IV-304, 3-(4-(2,5-Dimethyl-3-(1H-pyrazol-4-yl)piperidin-1-yl)pyrimidin-2-yl)-6-(trifluoromethyl)imidazo[1,2-a]pyrazine] was tested, and the Ki was < 10 nM.
`CS(C)(=O)=N[C@@H]1C[C@H](c2cn[nH]c2)CN(c2ccnc(-c3cnc4cnc(C(F)(F)F)cn34)n2)C1` (racemic) [IV-395] was tested, and the Ki was 10 to 100 nM.
For `NC(=O)C1CN(c2ccnc(-c3cnc4cnc(C(F)(F)F)cn34)n2)CCN1` (stereo not shown) [IV-595, 4-(2-(6-(Trifluoromethyl)imidazo[1,2-a]pyrazin-3-yl)pyrimidin-4-yl)piperazine-2-carboxamide], the Ki was 100 to 1000 nM.
Molecule `NC(=O)c1cn2c(-c3cccc(N4CCN5C(=O)NCC5C4)n3)cnc2cn1` (stereo not shown) [IV-227, 3-(6-(3-Oxohexahydroimidazo[1,5-a]pyrazin-7(1H)-yl)pyridin-2-yl)imidazo[1,2-a]pyrazine-6-carboxamide] has a Ki of 100 to 1000 nM.
With `CS(=N)(=O)CC1CCCN(c2ccnc(-c3cnc4cnc(C(F)F)cn34)n2)C1` (single isomer, unassigned) [IV-339, ((1-(2-(6-(Difluoromethyl)imidazo[1,2-a]pyrazin-3-yl)pyrimidin-4-yl)piperidin-3-yl)methyl)(imino)(methyl)-λ^6-sulfanone] the Ki was 100 to 1000 nM.
`FC(F)(F)c1cn2c(-c3nccc(-c4cnn(C5CCOCC5)c4)n3)cnc2cn1` [IV-448, 3-(4-(1-(Tetrahydro-2H-pyran-4-yl)-1H-pyrazol-4-yl)pyrimidin-2-yl)-6-(trifluoromethyl)imidazo[1,2-a]pyrazine] showed a Ki of 100 to 1000 nM.
Molecule `O=S1(=O)CCCN1C1CCCN(c2ccnc(-c3cnc4cnc(C(F)(F)F)cn34)n2)C1` (stereo not shown) [IV-658, 2-(1-(2-(6-(Trifluoromethyl)imidazo[1,2-a]pyrazin-3-yl)pyrimidin-4-yl)piperidin-3-yl)isothiazolidine 1,1-dioxide] has a Ki of 100 to 1000 nM.
`CS(=O)(=O)NC1CCCN(c2ccnc(-c3cnc4cnc(C(N)=O)cn34)n2)C1` (stereo not shown) [IV-250, 3-(4-(3-(Methylsulfonamido)piperidin-1-yl)pyrimidin-2-yl)imidazo[1,2-a]pyrazine-6-carboxamide] gave a Ki of 100 to 1000 nM.
In the case of `FC(F)(F)c1cn2c(-c3nccc(-n4ccc(C5CCCNC5)n4)n3)cnc2cn1` (stereo not shown) [IV-634, 3-(4-(3-(Piperidin-3-yl)-1H-pyrazol-1-yl)pyrimidin-2-yl)-6-(trifluoromethyl)imidazo[1,2-a]pyrazine], the Ki is reported as 100 to 1000 nM.
With `NCC1CCN(c2ccnc(-c3cnc4cnc(C(F)(F)F)cn34)n2)CC1` [IV-487] the Ki was 100 to 1000 nM.
`FC(F)(F)c1cn2c(-c3nccc(N4CCCC5(COC5)C4)n3)cnc2cn1` [IV-523, 6-(2-(6-(Trifluoromethyl)imidazo[1,2-a]pyrazin-3-yl)pyrimidin-4-yl)-2-oxa-6-azaspiro[3.5]nonane] showed a Ki of 100 to 1000 nM.
`CC1C(NS(C)(=O)=O)CCCN1c1ccnc(-c2cnc3cnc(C(F)F)cn23)n1` (stereo not shown) [IV-127, N-(1-(2-(6-(Difluoromethyl)imidazo[1,2-a]pyrazin-3-yl)pyrimidin-4-yl)-2-methylpiperidin-3-yl)methanesulfonamide] showed a Ki of 100 to 1000 nM.
Molecule `CC1C(c2cn[nH]c2)OCCN1c1ccnc(-c2cnc3cnc(Cl)cn23)n1` (single isomer, unassigned) [IV-244, 4-(2-(6-Chloroimidazo[1,2-a]pyrazin-3-yl)pyrimidin-4-yl)-3-methyl-2-(1H-pyrazol-4-yl)morpholine] has a Ki of 100 to 1000 nM.

Same assay, conditions: compounds of Formula II; 280 μM ATP, 4 nM GCN2 kinase
`CS(C)(=O)=NCC1CCCN(c2cc(-c3cnc4ccc(C(F)F)nn34)ncn2)C1` (stereo not shown) [II-573, (((1-(6-(6-(Difluoromethyl)imidazo[1,2-b]pyridazin-3-yl)pyrimidin-4-yl)piperidin-3-yl)methyl)imino)dimethyl-λ^6-sulfanone] gave a Ki of 10 to 1000 nM.
`C[C@H]1C[C@@H](CS(C)(=N)=O)[C@@H](C)N(c2cc(-c3cnc4ccc(C(F)F)nn34)ncn2)C1` (stereo partly drawn) [II-604, (((2R,3R,5S)-1-(6-(6-(Difluoromethyl)imidazo[1,2-b]pyridazin-3-yl)pyrimidin-4-yl)-2,5-dimethylpiperidin-3-yl)methyl)(imino)(methyl)-λ^6-sulfanone] was tested, and the Ki was 10 to 1000 nM.
In the case of `Cc1nnc([C@@H]2CN(c3cc(-c4cnc5ccc(C(F)(F)F)nn45)ccn3)C[C@H](C)O2)o1` [II-747], the Ki is reported as 10 to 1000 nM.
`CC(=O)N1CCC(c2cc(-c3cnc4ccc(C(F)F)nn34)ncn2)CC1` [II-539] showed a Ki of 10 to 1000 nM.
With `CC1C(CNS(C)(=O)=O)N(C(C)C)CCN1c1cc(-c2cnc3ccc(C(F)F)nn23)ncn1` (stereo not shown) [II-507, N-((4-(6-(6-(Difluoromethyl)imidazo[1,2-b]pyridazin-3-yl)pyrimidin-4-yl)-1-isopropyl-3-methylpiperazin-2-yl)methyl)methanesulfonamide] the Ki was < 10 nM.
Molecule `CN1CCN(c2cc(-c3cnc4ccc(C(F)F)nn34)ncn2)CC1CS(N)(=O)=O` (stereo not shown) [II-464, (4-(6-(6-(Difluoromethyl)imidazo[1,2-b]pyridazin-3-yl)pyrimidin-4-yl)-1-methylpiperazin-2-yl)methanesulfonamide] has a Ki of 10 to 1000 nM.
`CC1CC(CS(C)(=O)=O)C(C)N(c2cc(-c3cnc4ccc(C(F)F)nn34)ncn2)C1` (single isomer, unassigned) [II-625, 6-(Difluoromethyl)-3-[6-[2,5-dimethyl-3-(methylsulfonylmethyl)-1-piperidyl]pyrimidin-4-yl]imidazo[1,2-b]pyridazine] was tested, and the Ki was 10 to 1000 nM.
